For series [1], the system named is ovalbumin sensitized Dunkin Hartley guinea pigs. As to the kind of experiment: Ovalbumin induced asthma model in guinea pigs, intra-tracheal dosing. It counts as in vivo, guinea pig. Particulars: for Percent inhibition of eosinophils: BAL 48 hours after challenge; for Airway conductance sGAW (AUC): 4 hours before ovalbumin challenge. As for the experimental part: Healthy male Dunkin Hartley guinea pigs weighing between 300-400 gm were sensitized on day 0 with (5 mg) and on day 2 with (10 mg) of ovalbumin (Ova) and 10 mg of aluminum hydroxide gel given intra peritoneal (i.p.). Guinea pigs were challenged with 0.3% aerosolized ovalbumin on Day 21 following sensitization.
Actively sensitized male guinea pigs with free access to water, were fasted overnight, and used for the studies. Animals were assigned to one of the following groups during each experiment as per Table 2 below.
Guinea pigs were dosed intra-tracheally with Compound 52 or vehicle 4 hours before exposure to aerosolized ovalbumin challenge. The control group of animals received vehicle (Lactose powder—2 mg/animal, i.t.) only.
Broncho Alveolar Lavage (BAL) was performed at 48 hours after challenge with ovalbumin. Animals were anesthetized with an overdose of urethane, trachea was exposed and BAL was performed 5 times using 5 mL PBS. All aspirates of BAL were pooled and total number of cells determined using a hemocytometer. The BAL was centrifuged, and the cell pellet re-suspended in 50 μL guinea pig serum and used for preparation of smears. Slides were stained with Giemsa stain and a differential cell count of 500 cells based on standard morphology was performed manually.
The total number of eosinophils in each BAL sample was calculated using the formula:
[formula] Percent inhibition of eosinophils was calculated using the following formula: […]
The results for the bronchoconstriction part were calculated as percent (%) change in sGaw from saline base-line readings with saline taken just 1 minute before the antigen challenge and reported as peak change (mean±S.E.M.) for every 5 minutes for a total duration of 30 min after OA challenge. Area under the curve (AUC) was determined for each animal using GraphPad Prism. The percent (%) increase in AUC in the treated group relative to the vehicle group was calculated. Data was statistically analyzed using ANOVA and Dunnett's post hoc test.

Series [2] has as its system ovalbumin sensitized Brown Norway rats. Description: Ovalbumin challenge in Brown Norway rats, intra-tracheal dosing (Example 3). It counts as in vivo, rat. Particulars: i.t. Here is the method:
Male Brown Norway rats were sensitized subcutaneously on day 0, 14 and 21 with 0.5 ml solution containing 20 μg/ml ovalbumin and 40 mg/ml aluminum hydroxide. Simultaneously animals were injected intraperitoneally (i.p.) with 0.25 ml of B. pertussis vaccine/rat containing 4×10^8 heat killed bacilli/ml. Rats were challenged with 1% aerosolized ovalbumin on Day 28 following sensitization.
Test compounds were triturated and volume was made up with Normal Saline (0.9% NaCl). Animals were administered Compound 52 intra-tracheally 1 hour before ovalbumin challenge. Animals were sacrificed 48 hours after ovalbumin challenge and BAL was performed as mentioned in Example 2. The pooled BAL was used to determined total number of cells using a hemocytometer. Further, cell differential study was performed according to Example 2.
The total number of eosinophils in each BAL sample was calculated using the formula: […]
Percent inhibition of eosinophils was calculated using the following formula: […]
The data was statistically evaluated by ANOVA followed by Dunnett's multiple comparisons test.

A short description of series [3]: Pharmacokinetics in guinea pig upon intra-tracheal administration. In kind it is in vivo. To be noted: 500 mcg i.t.; for AUC0-24 / Cmax: mean ± SD (N = 3); for Tmax: guinea pig, other: intra-tracheal, 500 ug. Here is the method:
Guinea pigs were dosed intra-tracheally with Compound 52 with lactose as a vehicle. At various time points, animals were sacrificed with an overdose of urethane, trachea was exposed and BAL was performed 5 times using 5 mL PBS. Lung tissue was collected and kept at −70° C. until analysis. The BAL was centrifuged, and the cell pellet was collected and kept at −70° C. until analysis.

As usually defined, the Tmax is the time from dosing to the highest level. Consider `Cn1c(=O)c2c(CC(=O)Nc3nc(-c4ccc(F)c(C(F)(F)F)c4F)cs3)csc2n(C)c1=O` [Compound 52], for which the “Percent inhibition of eosinophils” value in series [1] (dose 125 μg/animal i.t.) is 61%; in series [1] (dose 250 μg/animal i.t.) it was 87%; in series [1] (dose 500 μg/animal i.t.) it was 68%; in series [1] (dose 25 i.t.), 0%; in series [1] (dose 50 i.t.) it was 0%. Moreover, the “Airway conductance sGAW (AUC)” value in series [1] (dose 25 (table μg/kg; text μg/animal) i.t.) worked out at 1399; in series [1] (dose 50 i.t.) it was 1592; in series [1] (dose 125 i.t.), 1943; in series [1] (dose 250 i.t.), 2004; in series [1] (dose 500 i.t.) it was 1987. Also, the “Percent improvement in airway conductance” value in series [1] (dose 25 i.t.) is 0%; in series [1] (dose 50 i.t.) it was 7%; in series [1] (dose 125 i.t.) it was 39%; in series [1] (dose 250 i.t.) it was 45%; in series [1] (dose 500 i.t.) it was 43%. Moreover, the inhibition of eosinophils in series [1] (dose not stated for this figure) was 75%. The “ED50, inhibition of pulmonary eosinophilia” value in series [2] turned out to be 213 µg. The AUC0-24 was 70390 ± 12071 ng · h/ml or g in series [3] (Cell Pellet (BAL)) and 103786 ± 28285 ng · h/ml or g in series [3] (Lung Tissue). For the same compound, the Cmax was 6726 ± 2049 ng/ml or g in series [3] (Cell Pellet (BAL)) and 4989 ± 2548 ng/ml or g in series [3] (Lung Tissue). The time of peak concentration (Tmax) was found to be 0.25 h in series [3] (Cell Pellet (BAL)) and 8 h in series [3] (Lung Tissue).

For the origin of these results see US9186360B2, “Treatment of respiratory disorders using TRPA1 antagonists” (GLENMARK PHARMACEUTICALS S.A., priority 2011, dated 2015).
